One may read the IC50 as the point on the concentration scale where inhibition reaches its midpoint. By EC50 is commonly meant the midpoint of the concentration-response curve. Read a high EC50 as lower potency in that assay.

These results are taken from patent US20100184786A1, “Polar Quinazolines” (Wyeth LLC, priority 2008, published 2010).

One data set addresses T1, human LXRα (Homo sapiens, UniProt Q13133).
T1 construct: biotin (biotinylated); made in house; host or cells: E. coli
T1 sequence (Q13133 1-447): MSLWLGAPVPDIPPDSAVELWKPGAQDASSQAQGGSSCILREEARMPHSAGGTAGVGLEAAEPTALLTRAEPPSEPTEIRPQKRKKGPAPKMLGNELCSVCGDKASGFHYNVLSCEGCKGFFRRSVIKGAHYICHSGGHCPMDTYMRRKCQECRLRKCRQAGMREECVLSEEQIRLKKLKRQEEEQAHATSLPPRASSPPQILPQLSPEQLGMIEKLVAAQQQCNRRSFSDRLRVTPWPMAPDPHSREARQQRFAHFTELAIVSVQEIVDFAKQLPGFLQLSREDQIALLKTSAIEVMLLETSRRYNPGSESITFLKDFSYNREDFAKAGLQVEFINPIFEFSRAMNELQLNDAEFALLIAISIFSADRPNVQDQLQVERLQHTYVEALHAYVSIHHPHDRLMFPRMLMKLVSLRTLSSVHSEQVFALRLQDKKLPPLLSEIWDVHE
Briefly: Ligand-binding test procedure for human LXRα (3H T0901317 tracer, flash plates). The following applies: competition with 3H T0901317; read-out: hLXRa binding IC50. How it is done: II. Ligand-Binding Test Procedure for Human LXRa.
• Buffer: 100 mM KCl, 100 mM TRIS (pH 7.4 at +4° C.), 8.6% glycerol, 0.1 mM PMSF*, 2 mM MTG*, 0.2% CHAPS (* not used in wash buffer) • Tracer: ^3H T0901317 • Receptor source: E. coli extract from cells expressing biotinylated hLXRα. Extract was made in a similar buffer as above, but with 50 mM TRIS.
• Washed streptavidin and coated flash plates with wash buffer. • Diluted receptor extract to give Bmax˜4000 cpm and add to the wells. • Wrapped the plates in aluminum foil and stored them at +4° C. over night.
(§1) • Made a dilution series in DMSO of the test ligands. • Made a 5 nM solution of the radioactive tracer in buffer. • Mixed 2500 diluted tracer with 50 of the test ligand from each concentration of the dilution series. • Washed the receptor-coated flash plates. • Added 2000 per well of the ligand/radiolabel mixture to the receptor-coated flash plates. • Wrapped the plates in aluminum foil and incubate at +4° C. over night.
• Aspirated wells, and wash the flashed plates. Sealed the plate. • Measured the remaining radioactivity in the plate.

The target in a further data set is T2, human LXRβ (Homo sapiens, UniProt P55055).
T2 construct: biotin (biotinylated); made in house; host or cells: E. coli
T2 sequence (P55055 1-460): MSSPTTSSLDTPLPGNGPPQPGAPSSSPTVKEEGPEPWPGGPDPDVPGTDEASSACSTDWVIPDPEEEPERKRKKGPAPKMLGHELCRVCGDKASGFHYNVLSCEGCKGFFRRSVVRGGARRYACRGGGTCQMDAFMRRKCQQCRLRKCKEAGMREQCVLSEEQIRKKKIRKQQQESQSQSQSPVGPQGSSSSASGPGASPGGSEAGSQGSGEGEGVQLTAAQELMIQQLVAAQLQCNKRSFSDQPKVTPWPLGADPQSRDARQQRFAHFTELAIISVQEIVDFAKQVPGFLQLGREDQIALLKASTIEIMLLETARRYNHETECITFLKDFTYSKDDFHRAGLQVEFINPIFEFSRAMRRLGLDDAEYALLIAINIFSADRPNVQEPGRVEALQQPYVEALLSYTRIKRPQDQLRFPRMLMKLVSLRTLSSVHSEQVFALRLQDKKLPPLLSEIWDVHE
Put plainly: Ligand-binding test procedure for human LXRβ (3H T0901317 tracer, flash plates). The following applies: competition with 3H T0901317; read-out: hLXRb binding IC50. On the procedure: I. Ligand-Binding Test Procedure for Human LXRβ.
• Buffer: 100 mM KCl, 100 mM TRIS (pH 7.4 at +4° C.), 8.6% glycerol, 0.1 mM PMSF*, 2 mM MTG*, 0.2% CHAPS (* not used in wash buffer) • Tracer: ^3H T0901317 • Receptor source: E. coli extracted from cells expressing biotinylated hLXRβ. Extract was made in a similar buffer as above, but with 50 mM TRIS.
• Washed streptavidin and coated flash plates with wash buffer. • Diluted receptor extract to give Bmax˜4000 cpm and add to the wells. • Wrapped the plates in aluminum foil and stored them at +4° C. overnight.
as §1
• Aspirated wells, and washed the flashed plates. Sealed the plate. • Measured the remaining radioactivity in the plate.

For a further data set, the system named is ABCA1 gene. Put plainly: Gene regulation by LXR (murine): ABCA1 gene regulation, mRNA by real-time PCR. The data set is classed as cell-based. The following applies: Mus musculus; for Emax: read-out: Agonism ABCA1. (In general: Real-time PCR tracks product formation cycle by cycle.)
A short description of the next data set: Brain penetration data. The data set is classed as in vivo. The following applies: brain/blood, read-out: Brain/Blood ratio.

The structures appear in SMILES notation.

With `N#CCCCS(=O)(=O)c1cccc(Oc2ccc(F)c(-c3ncnc4c(C(F)(F)F)cccc34)c2)c1` [Example 25, 4-[(3-{4-fluoro-3-[8-(trifluoromethyl)quinazolin-4-yl]phenoxy}phenyl)sulfonyl]butanenitrile], on human LXRα, the IC50 came out at 1520 nM. For the same compound, the half-inhibitory concentration (IC50) on human LXRβ amounted to 112 nM. In addition, in the data set with ABCA1 gene, the EC50 was 2470 nM and the Emax was 68%. Also, the Kp in “Brain penetration data” amounted to 0.55.
For the compound `CCS(=O)(=O)c1cccc(Oc2ccc(F)c(-c3ncnc4c(Cl)cccc34)c2)c1`, the Kp in “Brain penetration data” was 1.2.
Same read-out and setting: the same measure for `CS(=O)(=O)c1cccc(Oc2ccc(F)c(-c3ncnc4c(C(F)(F)F)cccc34)c2)c1`: 1.45.
`NC(=O)CCCS(=O)(=O)c1cccc(Oc2ccc(Cl)c(-c3ncnc4c(C(F)(F)F)cccc34)c2)c1` [Example 9, 4-[(3-{4-chloro-3-[8-(trifluoromethyl)quinazolin-4-yl]phenoxy}phenyl)sulfonyl]-butanamide]: the IC50 at human LXRα came out at 407 nM. The IC50 at human LXRβ worked out at 41 nM. Further, in the data set with ABCA1 gene, the EC50 worked out at 1900 nM and the Emax came out at 91%. Besides, the Kp in “Brain penetration data” turned out to be 0.06.
Take `CS(=O)(=O)CCCS(=O)(=O)c1cccc(Oc2ccc(Cl)c(-c3ncnc4c(C(F)(F)F)cccc34)c2)c1` [Example 5, 4-[2-chloro-5-(3-{[3-(methylsulfonyl)propyl]sulfonyl}phenoxy)phenyl]-8-(trifluoro-methyl)quinazoline]: on human LXRα, the IC50 worked out at 889 nM. Besides, on human LXRβ, the IC50 was found to be 140 nM. Moreover, in the data set on ABCA1 gene, the EC50 was 3240 nM and the Emax turned out to be 51%.
Regarding `Cc1nc(-c2cc(Oc3cccc(S(=O)(=O)CCCCC#N)c3)ccc2Cl)c2cccc(C(F)(F)F)c2n1` [Example 61, 5-[(3-{4-chloro-3-[2-methyl-8-(trifluoromethyl)quinazolin-4-yl]phenoxy}phenyl)sulfonyl]-pentanenitrile], the IC50 on human LXRα worked out at 2800 nM; at human LXRβ, 97 nM. For the same compound, the Emax in the data set with ABCA1 gene turned out to be 27%.
With `CNS(=O)(=O)c1cccc(Oc2ccc(F)c(-c3ncnc4c(C(F)(F)F)cccc34)c2)c1` [Example 22], the IC50 stood at 149 nM at human LXRα and 10 nM on human LXRβ. The compound also showed an EC50 in the data set on ABCA1 gene of 290 nM. For the same compound, the Emax with ABCA1 gene was determined as 81%.
Turning to `NC(=O)CS(=O)(=O)c1cccc(Oc2ccc(Cl)c(-c3ncnc4c(C(F)(F)F)cccc34)c2)c1` [Example 14, 2-[(3-{4-chloro-3-[8-(trifluoromethyl)quinazoliyl]phenoxy}phenyl)sulfonyl]-acetamide], the IC50 was 705 nM at human LXRα and 56 nM on human LXRβ. In the data set on ABCA1 gene, this compound had a half-maximal effective concentration (EC50) of 1380 nM. For the same compound, the Emax with ABCA1 gene came to 95%.
Consider `CCS(=O)(=O)c1cccc(Oc2ccc(Cl)c(-c3nc(C)nc4c(C(F)(F)F)cccc34)c2)c1`, for which, in “Brain penetration data”, the Kp worked out at 1.57.
With `N#CCS(=O)(=O)c1cccc(Oc2ccc(Cl)c(-c3ncnc4c(C(F)(F)F)cccc34)c2)c1` [Example 11, [(3-{4-chloro-3-[8-(trifluoromethyl)quinazolin-4-yl]phenoxy}phenyl)sulfonyl]-acetonitrile], the half-inhibitory concentration (IC50) at human LXRα was 425 nM. For the same compound, the IC50 on human LXRβ is 40 nM. In the data set with ABCA1 gene, a half-maximal effect (EC50) was put at 1760 nM and the Emax was found to be 95%. For the same compound, the Kp in the data set “Brain penetration data” was 0.16.
`CS(=O)(=O)c1cccc(Oc2ccc(F)c(-c3ncnc4c(Cl)cccc34)c2)c1`: the Kp in the data set “Brain penetration data” was 1.2.
For `CNS(=O)(=O)c1cccc(Oc2ccc(Cl)c(-c3ncnc4c(Cl)cccc34)c2)c1` [Example 16, 3-[4-chloro-3-(8-chloroquinazolin-4-yl)phenoxy]-N-methylbenzenesulfonamide], the IC50 on human LXRα is 146 nM. On human LXRβ, the IC50 was determined as 11 nM. For the same compound, in the data set on ABCA1 gene, the midpoint of the response, the EC50, lay at 255 nM and the Emax turned out to be 98%.
As for `Cc1nc(-c2cccc(-c3cccc(S(C)(=O)=O)c3)c2)c2cccc(C(F)(F)F)c2n1`, the Kp in “Brain penetration data” worked out at 2.27.
Take `CS(=O)(=O)CCCCS(=O)(=O)c1cccc(Oc2ccc(F)c(-c3ncnc4c(C(F)(F)F)cccc34)c2)c1` [Example 37, 4-[2-fluoro-5-(3-{[4-(methylsulfonyl)butyl]sulfonyl}phenoxy)phenyl]-8-(trifluoromethyl)-quinazoline]: at human LXRα, the IC50 is 536 nM. On human LXRβ, the IC50 was 66 nM. In the data set on ABCA1 gene, a half-maximal effect (EC50) was put at 415 nM and the Emax came to 77%.
For `N#CCCCCS(=O)(=O)c1cccc(Oc2ccc(F)c(-c3ncnc4c(C(F)(F)F)cccc34)c2)c1` [Example 31, 5-[(3-{4-fluoro-3-[8-(trifluoromethyl)quinazolin-4-yl]phenoxy}phenyl)sulfonyl]pentanenitrile], the IC50 at human LXRα was 628 nM. In addition, on human LXRβ, the IC50 stood at 52 nM. For the same compound, in the data set with ABCA1 gene, the EC50 is 1760 nM and the Emax was found to be 99%.
For `N#CCCCS(=O)(=O)c1cccc(Oc2ccc(Cl)c(-c3ncnc4c(C(F)(F)F)cccc34)c2)c1` [Example 3, 4-[(3-{4-chloro-3-[8-(trifluoromethyl)quinazolin-4-yl]phenoxy}phenyl)sulfonyl]-butanenitrile] the same measures were 512 nM, 35 nM, 2700 nM and 71%.
